Assay results: patent US20120121591A1 (priority 2009, published 2012)
Like-named read-outs stand apart in the source and are kept apart here.

Experiments:
Format in all cases: cell-based
[1] = molecular target: hKv1.3 (Homo sapiens, UniProt P22001); assay: cell-based; conditions: Kv1.3 (IWQ) IC50 (nM, Avg)
[2] = tested on: IL-2 secretion from T cells in human whole blood; conditions: read-out: WB (IL-2) IC50 (nM, Avg)
[3] = tested on: IFN-g secretion from T cells in human whole blood
[4] = read-out: WB (IFNg) IC5- (nM, Avg)

hKv1.3, sequence (P22001 whole entry): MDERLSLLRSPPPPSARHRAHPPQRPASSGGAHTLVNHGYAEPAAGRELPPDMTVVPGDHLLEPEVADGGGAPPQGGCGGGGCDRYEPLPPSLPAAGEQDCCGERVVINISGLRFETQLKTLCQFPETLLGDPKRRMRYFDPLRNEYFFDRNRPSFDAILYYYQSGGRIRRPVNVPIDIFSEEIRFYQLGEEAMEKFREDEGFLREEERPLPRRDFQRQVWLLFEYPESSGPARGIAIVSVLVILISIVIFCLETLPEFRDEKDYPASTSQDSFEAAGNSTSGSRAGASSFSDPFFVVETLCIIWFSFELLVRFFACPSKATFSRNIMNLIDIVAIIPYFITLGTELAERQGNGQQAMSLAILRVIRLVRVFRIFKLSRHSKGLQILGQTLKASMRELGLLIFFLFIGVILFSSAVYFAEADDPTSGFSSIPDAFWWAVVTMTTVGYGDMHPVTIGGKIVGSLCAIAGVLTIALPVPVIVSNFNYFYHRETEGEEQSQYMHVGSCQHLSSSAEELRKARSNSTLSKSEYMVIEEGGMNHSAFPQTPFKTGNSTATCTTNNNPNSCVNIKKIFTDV

Row | Compound | IC50 [1] | IC50 [2] | IC50 [3, 4] | IC50 ([3]; read-out: WB (IFNg) IC50 (nM, Avg))
1 | CC[C@H](C)[C@@H]1NC(=O)[C@@H](NC(=O)[C@H](CO)NC(=O)[C@@H](N)CCC(=O)O)CSSC[C@@H](C(=O)O)NC(=O)[C@H]([C@@H](C)O)NC(=O)CNC(=O)[C@@H]2CSSC[C@@H]3NC(=O)[C@H](CCC(N)=O)NC(=O)[C@H](Cc4ccccc4)NC(=O)[C@H](C)NC(=O)[C@H]([C@@H](C)O)NC(=O)[C@H](CSSC[C@H](NC(=O)[C@H](Cc4ccccc4)NC(=O)[C@H](CO)NC(=O)[C@H](CC(C)C)NC(=O)[C@H](CCCNC(=N)N)NC(=O)[C@H](Cc4ccc(O)cc4)NC(=O)[C@H](CCCCN)NC(=O)[C@H](CCSC)NC(=O)[C@H](CO)NC(=O)[C@H](Cc4c[nH]cn4)NC(=O)[C@H](CCCCN)NC3=O)C(=O)N[C@@H](CCCNC(=N)N)C(=O)N[C@@H](CCCCN)C(=O)N[C@@H]([C@@H](C)O)C(=O)N2)NC(=O)[C@H](CCCNC(=N)N)NC(=O)[C@H](CO)NC(=O)[C@H](CCCCN)NC(=O)[C@@H]2CCCN2C(=O)[C@H]([C@@H](C)CC)NC(=O)[C@H]([C@@H](C)O)NC(=O)[C@H](CC(=O)O)NC1=O [[Glu1]ShK] | 0.144 nM | 0.213 nM | 0.249 nM | 
2 | CC[C@H](C)[C@@H]1NC(=O)[C@@H](NC(=O)[C@H](CO)NC(=O)[C@@H](N)CCCNC(=N)N)CSSC[C@@H](C(=O)O)NC(=O)[C@H]([C@@H](C)O)NC(=O)CNC(=O)[C@@H]2CSSC[C@@H]3NC(=O)[C@H](CCC(N)=O)NC(=O)[C@H](Cc4ccccc4)NC(=O)[C@H](C)NC(=O)[C@H]([C@@H](C)O)NC(=O)[C@H](CSSC[C@H](NC(=O)[C@H](Cc4ccccc4)NC(=O)[C@H](CCC(=O)O)NC(=O)[C@H](CC(C)C)NC(=O)[C@H](CCCNC(=N)N)NC(=O)[C@H](Cc4ccc(O)cc4)NC(=O)[C@H](CCCCN)NC(=O)[C@H](CCSC)NC(=O)[C@H](CO)NC(=O)[C@H](Cc4c[nH]cn4)NC(=O)[C@H](CCCCN)NC3=O)C(=O)N[C@@H](CCCNC(=N)N)C(=O)N[C@@H](CCCCN)C(=O)N[C@@H]([C@@H](C)O)C(=O)N2)NC(=O)[C@H](CCCNC(=N)N)NC(=O)[C@H](CO)NC(=O)[C@H](CCCCN)NC(=O)[C@@H]2CCCN2C(=O)[C@H]([C@@H](C)CC)NC(=O)[C@H]([C@@H](C)O)NC(=O)[C@H](CC(=O)O)NC1=O [[Glu26]ShK] | 0.317 nM | 0.202 nM | 0.4 nM | 
3 | CCCC[C@@H]1NC(=O)[C@H](CO)NC(=O)[C@H](Cc2c[nH]cn2)NC(=O)[C@H](CCCCN)NC(=O)[C@@H]2CSSC[C@@H]3NC(=O)[C@H]([C@@H](C)O)NC(=O)[C@H](CCCCN)NC(=O)[C@H](CCCNC(=N)N)NC(=O)[C@H](CSSC[C@H](NC(=O)[C@H](CCCNC(=N)N)NC(=O)[C@H](CO)NC(=O)[C@H](CCCCN)NC(=O)[C@@H]4CCCN4C(=O)[C@H]([C@@H](C)CC)NC(=O)[C@H]([C@@H](C)O)NC(=O)[C@H](CC(=O)O)NC(=O)[C@H]([C@@H](C)CC)NC(=O)[C@@H](NC(=O)[C@H](CO)NC(=O)[C@@H](N)CCCNC(=N)N)CSSC[C@@H](C(N)=O)NC(=O)[C@H]([C@@H](C)O)NC(=O)CNC3=O)C(=O)N[C@@H]([C@@H](C)O)C(=O)N[C@@H](C)C(=O)N[C@@H](C)C(=O)N[C@@H](CCCCN)C(=O)N2)NC(=O)[C@H](Cc2ccccc2)NC(=O)[C@H](CO)NC(=O)[C@H](CC(C)C)NC(=O)[C@H](CCCNC(=N)N)NC(=O)[C@H](Cc2ccc(O)cc2)NC(=O)[C@H](CCCCN)NC1=O [[Ala15, Lys16,Nle21]ShK-amide] | 0.127 nM | 0.952 nM |  | 1.87 nM
